Test results reported in patent US20210106566A1, “PHARMACEUTICAL COMPOSITION FOR TREATING AND/OR PREVENTING PERIPHERAL NEUROPATHY OR SPINAL CORD INJURY” (NATIONAL UNIVERSITY CORPORATION NAGOYA UNIVERSITY, priority 2015, published 2021).

How the values were obtained:
[1] = tested on: NSC34 cells; test: Screening of neurite length in NSC34 cells; assay type: cell-based, mouse; conditions: dose dependency, FIG. 1
Experimental: The cells were seeded in DMEM/F12 differentiation medium (Invitrogen) supplemented with 1% FBS and […] doxycycline in a 96-well plate at 1.6×10^3 cells/cm^2 to induce the expression of GFP. […] Subsequently, cell nuclei were stained with Hoechst 33342 (1:100,000, Sigma Aldrich). Sixteen images per well were acquired on ArrayScan VTI HCS Reader (Thermo Scientific Cellomics). The average of neurite length in each well was automatically determined using Neuronal Profiling v4.0 BioApplication (Thermo Scientific Cellomics).

[2] = tested on: severely crushed spinal cord model mice; test: Severely crushed spinal cord model mice: motor function with BMS score; assay type: in vivo, mouse; conditions: for BMS score: 30 mg/kg/day intragastrically
Excerpt: Female C57BL/6J mice (8 weeks old; 19.5-22.0 g) were purchased from Charles River. The female C57BL/6J mice were anesthetized by intraperitoneally administering pentobarbital sodium and underwent back incision under a sterile condition to perform laminectomy at the 10th thoracic vertebra. The spinal cord was crushed at 100 kdyn using a tip with a diameter of 1.35 mm on IH Spinal Cord Impactor. After the occurrence of hematoma in the spinal cord was confirmed under a microscope, the wound was closed and 1 ml of physiological saline was subcutaneously injected into the posterior neck region to prevent dehydration. The mice with spinal cord injury were separated into two groups in a blinded fashion. Zonisamide was diluted with olive oil (solvent) to 3 mg/mL and intragastrically administered to mice in one group at 30 mg/kg/day using a disposable probe needle (flexible type, Fuchigami) for consecutive days from the day of surgery. Mice in the other group received only the solvent using a similar procedure for consecutive days. One day after surgery, motor function of mice in both groups was assessed using BMS score (Basso mouse scale; Li et. al. J Neurosurg Spine 4: 165-173 (2006)) in a blinded fashion to select the mice with BMS score of 1 or lower and consider them as severely crushed spinal cord model mice. The mice received 200 mL of water containing trimethoprim (16 mg)/sulfamethoxazole (80 mg) from a feeder to prevent infection for 3 days after surgery. BMS score is scored by rating ankle movement, weight support, stepping, coordinated motion of forelimbs and hindlimbs (coordination), hindlimb position in walking, trunk stability, and tail position, and ranges from 0 to 9; score 0 corresponds to complete paralysis of hindlimb and score 9 corresponds to normal motion; more specifically, BMS score is described as follows: 0: No ankle movement. 1: Slight ankle movement (less than 50% of the range of motion). 2: Extensive ankle movement (equal to and greater than 50% of the range of motion). 3: Plantar placing of the paw or occasional dorsal stepping. 4: Occasional planter stepping with weight support (equal to and less than 50% of forward movement). 5: Frequent or consistent planter stepping (equal to and greater than 50% of forward movement), no coordination of limbs; or frequent or consistent planter stepping, some coordination of limbs, hindlimb paws rotated at initial contact and lift off. 6: Some coordination of limbs, hindlimb paws parallel at initial contact and rotated at lift off; or mostly coordinated, hindlimb paws rotated at initial contact and lift off. […] BMS scores were measured at days 1, 3, 7, 14, 21, and 28 after surgery in a blinded fashion (FIG. 14).

[3] = tested on: Chrne, Colq, and Rapsn; test: Mouse sciatic nerve autologous transplantation model: mRNA in gastrocnemius muscle; assay type: in vivo; conditions: 8 weeks after surgery, 30 mg/kg/day
Excerpt: Adult male C57BL/6J mice (8 weeks old; 19.5-22.0 g) were purchased from Charles River. The mice were anesthetized with isoflurane and underwent gluteal muscle incision under a sterile condition to expose the sciatic nerve in the left leg. The sciatic nerve was cut at the following two sites (1) and (2): (1) the site 3 mm distal to the first bifurcation of biceps femoris (hereinafter referred to as proximal transection site) (2) the site 3 mm distal to the proximal transection site (hereinafter referred to as distal transection site) The excised nerve segment with a length of 3 mm was confirmed to be completely cut at the two sites. The perineurium was sutured with nylon thread (10-0 black) at the proximal transection site and the distal transection site under a microscope. The remaining thread was used as a marker for finding the nerve transection site in the sacrifice of the mice. In order to reduce DMSO toxicity, a solution of 60 mg/mL zonisamide in 100% DMSO was prepared and the solution was diluted in olive oil to give a solution of 3 mg/mL zonisamide in 5% DMSO. The control solution (5% DMSO) or zonisamide (3 mg/mL×about 0.2 mL) at 30 mg/kg/day was administered to the stomach using a disposable probe needle (flexible type, Fuchigami) once a day for 1 to 8 weeks from the end of surgery until sacrifice. Myelin sheath formation in the sciatic nerve was analyzed in six mice in each group. One week after the sciatic nerve autologous transplantation, the sciatic nerve was transected at “the proximal transection site” and “the site 3 mm distal to the distal transection site” to excise a nerve segment with a length of 6 mm. […] The number and area of myelinated axons in the sciatic nerve were manually measured using ImageJ software in a blinded fashion. […] The mRNA expression levels of Bdnf, Ngf, Ntf4, Ntrk1, Ntrk2, Map2, Mapt, Gap43, Chrne, Colq, and Rapsn were quantified in a manner similar to Example 5.

NS(=O)(=O)Cc1noc2ccccc12 [Zonisamide, 3-sulfamoylmethyl-1,2-benzisoxazole]
axonal growth (average neurite length) in NSC34 cells [1]: dose-dependent axonal growth | BMS score ([2]; day 14 after surgery): 3.2±0.3 | BMS score ([2]; day 21 after surgery): 3.2±0.4 | BMS score ([2]; day 28 after surgery): 3.7±0.4 | BMS score compared to the control group ([2]; since day 14 after surgery): significantly higher | expression level of Chrne [3]: increased | expression level of Colq [3]: increased | expression level of Rapsn [3]: increased
